Test [1] has as its system Alternaria solani in tomato (early blight disease). As to the kind of experiment: Greenhouse efficacy on tomato early blight, lesion area at 4 dpi (Examples 1-3). Format: in vivo.
For test [2], the system named is Soybean Target Spot (Corynespora cassicola). Kind of test: Greenhouse trial on potted soybean plants, target spot (Example 8). Type of test: in vivo.
For the next test, the system named is Botrytis. Kind of test: Greenhouse trial on potted plants, Botrytis in pepper (Example 7).
In another test the test system is Target Spot. As to the kind of experiment: Greenhouse trial on potted plants, target spot in soybean (Example 7).
In test [3] the test system is cucumber downy mildew. As to the kind of experiment: Greenhouse efficacy on cucumber downy mildew (Example 4). Type of test: in vivo.
Test [4] has as its system tomato late blight disease. Format: in vivo.
Test [5] relates to tomato early blight disease. Kind of test: Greenhouse efficacy on tomato early blight disease (Example 6). Format: in vivo.
Test [6] relates to cucumber downy mildew. Kind of test: Greenhouse efficacy on cucumber downy mildew (Example 9). Format: in vivo.
The subject of test [7] is tomato early blight disease. Kind of test: Greenhouse trial on potted tomato plants, early blight (Example 10). Format: in vivo.
The next test relates to Early Blight. The settings on record: Tomato.
Where [8] appears, read: 17.5 g/L, 700 g Cu/HA (standard).
Where [9] appears, read: 0.75 g/L, 30 g Cu/HA (standard).

The record followed here is patent US20250151723A1, “FUNGICIDAL COMBINATION, COMPOSITION, AND USE THEREOF” (UPL MAURITIUS LIMITED, priority 2023, published 2025).

Like-named read-outs stand apart in the source and are kept apart here.

Procedure for Botrytis: Following trials were conducted on crops (potted plants) infected with the pathogen/disease in a greenhouse trial.

In the case of `O=C(O)c1ccccc1O` [Salicylic acid], the Observed efficacy % in test [1] (Table 1, 20 g/HA of SA) is given as 13.3%; in test [1] (Table 2, 40 mg/L, 2.5 g SA/HA), 23.4%; in test [1] (Table 2, 80 mg/L, 5 g SA/HA), 22.1%; in test [1] (Table 2, 320 mg/L, 10 g/HA), −2.3%; in test [1] (Table 2, 320 mg/L, 20 g/HA), −2.7%.
In the case of `O=C1c2ccccc2C(=O)N1SC(Cl)(Cl)Cl` [folpet], the “Efficacy (%)” value is listed as 34.7% in test [2] (0.015 g/L, 0.63 g Folpet/ha); 98.4% in [2] (5 g/L, 208.5 g Folpet/ha (full recommended dose)); 9.3% in the test with Botrytis (0.002 ml/l, 0.1 gai/ha); 34.7% in the test on Target Spot (0.015 g/l, 0.625 gai/ha).
Consider `O=S(=O)([O-])[O-].[Cu+2].[Cu+2].[Cu+2].[Cu+2].[OH-].[OH-].[OH-].[OH-].[OH-].[OH-]` [tribasic copper sulphate], for which the Observed efficacy % in test [1] (Table 1, 150 g/HA of Cu) is 31%; in [1] (Table 1, 700 g/HA of Cu (standard treatment)), 88%; in test [1] (Table 2, 0.75 g/L, 150 g Cu/HA), 40.2%; in [1] (Table 2, 17.5 g/L, 700 g Cu/HA (standard)) it was 86.9%; in test [1] (Table 3, 0.75 g/L) it was 23%; in [1] (Table 3, 17.5 g/L (standard)) it was 75%. In addition, the Observed efficacy % in test [4] (0.25 g/L, 10 g Cu/HA) came out at 18.5%; in [4] (setting [9]), 62.9%; in [5] (0.75 g/L, 30 g Cu/HA), 18.5%; in [5] (setting [8]), 57.6%; with cucumber downy mildew [6] (0.25 g/L, 10 g Cu/HA) it was 50.7%; with cucumber downy mildew [6] (setting [9]) it was 96.7%. Besides, the Observed efficacy is reported as −7.6 in the test on cucumber downy mildew [3] (0.13 g/L, 5.2 g Cu/HA) and 94.9 in the test with cucumber downy mildew [3] (setting [8]).
`O=C([O-])c1ccccc1O.[K+]` [potassium salicylate]: the Observed efficacy % in test [1] (Table 3, 410 mg/L) worked out at 5.8%; in test [4] (137 mg/L, 1.7 g SA/HA), 15.2%; in test [5] (310 mg/L, 3.875 g SA/HA), 2.2%; in test [5] (410 mg/L, 5.125 g SA/HA), 13.1%; in [5] (620 mg/L, 7.75 g/HA), 11.4%; in the test with cucumber downy mildew [6] (103 mg/L, 1.29 g KSA/HA), 14.0%. Further, the Observed efficacy % is −1.1% in the test on cucumber downy mildew [6] (137 mg/L, 1.71 g KSA/HA); −2.7% in the test on cucumber downy mildew [6] (207 mg/L, 2.59 g KSA/HA); 0.4% in test [7] (0.1 g/L, 1.25 gai/ha); 2.3% in test [7] (0.41 g/L, 5.13 gai/ha); 37.4% in [7] (0.82 g/L, 10.25 gai/ha); 34.4% in [7] (1.64 g/L, 20.5 gai/ha). In the test on cucumber downy mildew [3] (71 mg/L, 0.89 g SA/HA), this compound came in with an Observed efficacy of 21.9. The “Efficacy (%)” value is listed as 19.5% in [2] (25 mg/L, 0.31 g KSA/ha); 12.4% in [2] (100 mg/L, 1.25 g KSA/ha); 1.8% in test [2] (410 mg/L, 5.13 g KSA/ha); −6.1% in test [2] (820 mg/L, 10.27 g KSA/ha); −11.4% in test [2] (1.64 g/L, 20.54 g KSA/ha); −3% with Early Blight (0.41 g/l, 5.13 gai/ha). Besides, the “Efficacy (%)” value is reported as −5.2% in the test on Botrytis (0.025 g/l, 0.31 gai/ha (mancozeb and captan sections)); −3.9% with Botrytis (0.1 g/l, 1.25 gai/ha (mancozeb and captan sections)); 12% in the test on Botrytis (folpet section, 0.1 g/l, 1.25 gai/ha); 19.5% with Target Spot (captan and folpet sections, 0.025 g/l, 0.31 gai/ha); 12.4% in the test with Target Spot (captan and folpet sections, 0.1 g/l, 1.25 gai/ha); 1.8% in the test on Target Spot (captan and folpet sections, 0.41 g/l, 5.13 gai/ha). Also, the “Efficacy (%)” value is recorded as −6.1% in the test on Target Spot (captan and folpet sections, 0.82 g/l, 10.25 gai/ha); −11.4% in the test on Target Spot (captan and folpet sections, 1.64 g/l, 20.5 gai/ha); 16.8% with Target Spot (mancozeb section, 0.025 g/l, 0.31 gai/ha); 12.6% in the test on Target Spot (mancozeb section, 0.1 g/l, 1.25 gai/ha); 27.6% in the test on Target Spot (mancozeb section, 0.41 g/l, 5.13 gai/ha); −3.8% in the test on Target Spot (mancozeb section, 0.82 g/l, 10.25 gai/ha). Also, the “Efficacy (%)” value in the test on Target Spot (mancozeb section, 1.64 g/l, 20.5 gai/ha) came out at 6.3%.
On to `O=C1C2CC=CCC2C(=O)N1SC(Cl)(Cl)Cl` (stereo not shown) [captan], for which the “Efficacy (%)” value in test [2] (0.02 g/L, 1.56 g Captan/ha) is given as 0.4%; in test [2] (6 g/L, 467 g Captan/ha (full recommended dose)) it was 100%; in the test on Botrytis (0.002 g/l, 0.16 gai/ha), 20.4%.
As for mancozeb, the “Efficacy (%)” value is listed as −12.6% in the test with Early Blight (0.0187 g/l, 1.4 gai/ha); 26.4% in the test with Botrytis (0.0168 g/l, 1.26 gai/ha); −6.6% in the test on Target Spot (0.0075 g/l, 0.56 gai/ha).
